Measurements: publication PMC9098913, “In vitro reconstitution of Escherichia coli divisome activation” (Nature Communications, 2022)
Like-named read-outs stand apart in the source and are kept apart here.

Columns and labels:
FtsA self-interaction = assay: Cuvette FRET of FtsA in solution and with lipid vesicles (SUVs); assay type: binding, E. coli; conditions: for FRET efficiency: Fig. S3c, in cuvette
Description: For in solution FRET experiments, increasing concentrations of Cy3-FtsA and Cy5-FtsA in a 50:50 ratio were mixed in 100 µl reaction buffer (50 mM Tris-HCl [pH7.4], 150 mM KCl and 5 mM MgCl2) inside a quartz cuvette (Hellma® fluorescence cuvettes, ultra Micro). The spectrums were measured using a Spectrophotometer Spectramax M2e Plate- + Cuvette Reader (Molecular Devices). Cy3-FtsA was excited at a wavelength of 520 nm and the resulting emission spectrum was recorded from 550–700 nm in 1 nm steps. To avoid crosstalk of the excitation light, a cutoff filter was set to 550 nm. Addition of ATP or small unilamellar vesicles (SUVs) was measured individually for each concentration. Buffer controls containing the corresponding reagents and only Cy5-FtsA were measured and used as background corrections for measurements with Cy3- and Cy5-FtsA. Background corrected spectra were used to estimate FRET efficiency by E(%)=Fa/Fd+Fa⋅100 , where Fa is the peak of acceptor (=Cy5) emission at 670 nm and Fd the peak of the emission of the donor (=Cy3) spectrum at 565 nm.

[1] = Fig. S4b, 0.10 % Tris NTA
Description: To study colocalization of His-tagged variants of FtsA, 0.5–1 µM of Cy5 labelled His-tagged FtsAs were added to the chamber, incubated for 20 min and washed 6x with reaction buffer. […] To control the density of membrane-bound FtsA, SUVs without and with Tris-NTA lipids were mixed to obtain the respective Tris-NTA concentrations. To perform FRET/FRAP experiments, equimolar concentrations of Cy3 and Cy5 labelled His-tagged FtsAs (total 0.5–1 µM) or His-SUMO-Cys were added to a chamber and treated as above. […] FRAP experiments were performed as described before.
To calculate the theoretical spacing of His-tagged FtsAs or the His-SUMO control, we consulted a previous QCM-D study using Tris-NTA lipids and a His-tagged version of ZipA[50]. The spacing in nm^2 was calculated by y=2/3⋅1/6.022⋅x⋅0.001 , where x is the protein density in pMol cm^−2 which can be estimated from the Tris-NTA lipid density.
To estimate the theoretical maximum packing of membranes containing Tris-NTA lipids, we can assume the area of a single FtsA molecule to be ~30 nm^2 and the area of a single lipid molecule to be 0.5 nm^2. […] For the FRET control experiments with His-SUMO-Cys, we estimate a four times smaller area for His6-SUMO Cys (~7 nm^2) and thus increase the maximum Tris-NTA density to 5%.

FtsA WT: wild-type E. coli actin-homologue FtsA, membrane anchor of FtsZ
FRET efficiency (FtsA self-interaction; + SUVs, 0.05 µM, mean, n = 3): 1.50%
FRET efficiency (FtsA self-interaction; + SUVs, 0.05 µM, replicate 1): 1.29%
FRET efficiency (FtsA self-interaction; + SUVs, 0.05 µM, replicate 2): 1.96%
FRET efficiency (FtsA self-interaction; + SUVs, 0.05 µM, replicate 3): 1.25%
FRET efficiency (FtsA self-interaction; + SUVs, 0.10 µM, mean, n = 3): 6.63%
FRET efficiency (FtsA self-interaction; + SUVs, 0.10 µM, replicate 1): 6.56%
FRET efficiency (FtsA self-interaction; + SUVs, 0.10 µM, replicate 2): 7.39%
FRET efficiency (FtsA self-interaction; + SUVs, 0.10 µM, replicate 3): 5.94%
FRET efficiency (FtsA self-interaction; + SUVs, 0.20 µM, mean, n = 3): 7.59%
FRET efficiency (FtsA self-interaction; + SUVs, 0.20 µM, replicate 1): 8.16%
FRET efficiency (FtsA self-interaction; + SUVs, 0.20 µM, replicate 2): 7.75%
FRET efficiency (FtsA self-interaction; + SUVs, 0.20 µM, replicate 3): 6.87%
FRET efficiency (FtsA self-interaction; without SUVs, 0.05 µM, mean, n = 3): 0.0114%
FRET efficiency (FtsA self-interaction; without SUVs, 0.05 µM, replicate 1): 0.0544%
FRET efficiency (FtsA self-interaction; without SUVs, 0.05 µM, replicate 2): -1.50%
FRET efficiency (FtsA self-interaction; without SUVs, 0.05 µM, replicate 3): 1.48%
FRET efficiency (FtsA self-interaction; without SUVs, 0.10 µM, mean, n = 3): 1.67%
FRET efficiency (FtsA self-interaction; without SUVs, 0.10 µM, replicate 1): 1.71%
FRET efficiency (FtsA self-interaction; without SUVs, 0.10 µM, replicate 2): 2.21%
FRET efficiency (FtsA self-interaction; without SUVs, 0.10 µM, replicate 3): 1.09%
FRET efficiency (FtsA self-interaction; without SUVs, 0.20 µM, mean, n = 3): 2.87%
FRET efficiency (FtsA self-interaction; without SUVs, 0.20 µM, replicate 1): 2.43%
FRET efficiency (FtsA self-interaction; without SUVs, 0.20 µM, replicate 2): 2.56%
FRET efficiency (FtsA self-interaction; without SUVs, 0.20 µM, replicate 3): 3.62%
FRET in solution (FtsA self-interaction; cuvette, no lipid): could not detect any significant FRET signal
FRET with lipid vesicles (FtsA self-interaction; cuvette, presence of lipid vesicles): FRET increased significantly

FtsA-His6: FtsA WT (1-405) with amphipathic helix replaced by C-terminal His-tag
FtsA His6 intensity on Tris NTA SLBs ([1]; replicate 1): 1571.82 a.u.
FtsA His6 intensity on Tris NTA SLBs ([1]; replicate 2): 1134.07 a.u.
FtsA His6 intensity on Tris NTA SLBs ([1]; replicate 3): 932.94 a.u.
